Several values for one entry are separate records, joined by “and”; a condition that tells them apart may be missing. Identical values can stand only once.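 Cells were grown in 96-well plates and exposed to each compound for 48 hours at five concentrations; endpoints were interpolated linearly between bracketing concentrations, or set to the highest concentration if not reached. GI50: concentration for 50% inhibition of growth. TGI: total growth inhibition.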
Key:
Test in all cases: NCI tumour cell line growth inhibition, 48 h; in the data active = GI50 below about 0.43 µM; inactive = the rest
HOP-92 NSCLC = tested on: HOP-92 NSCLC
CCRF-CEM leukemia = tested on: CCRF-CEM leukemia
UO-31 renal = tested on: UO-31 renal
OVCAR-5 ovarian = tested on: OVCAR-5 ovarian
K-562 leukemia = tested on: K-562 leukemia
MDA-MB-231 breast = tested on: MDA-MB-231 breast
SF-295 CNS = tested on: SF-295 CNS
RXF 393 renal = tested on: RXF 393 renal
NCI-H522 lung = tested on: NCI-H522 lung
NCI-H23 lung = tested on: NCI-H23 lung
A498 renal = tested on: A498 renal
NCI-H226 lung = tested on: NCI-H226 lung
NCI-H460 lung = tested on: NCI-H460 lung
OVCAR-8 ovarian = tested on: OVCAR-8 ovarian
ACHN renal = tested on: ACHN renal
SK-MEL-2 melanoma = tested on: SK-MEL-2 melanoma
HOP-62 NSCLC = tested on: HOP-62 NSCLC
SNB-75 CNS = tested on: SNB-75 CNS
786-0 renal = tested on: 786-0 renal
SNB-19 CNS = tested on: SNB-19 CNS
U251 CNS = tested on: U251 CNS
OVCAR-4 ovarian = tested on: OVCAR-4 ovarian
HT29 colon = tested on: HT29 colon
HL-60(TB) leukemia = tested on: HL-60(TB) leukemia
MCF7 breast = tested on: MCF7 breast
SK-MEL-28 melanoma = tested on: SK-MEL-28 melanoma
HCT-15 colon = tested on: HCT-15 colon
LOX IMVI melanoma = tested on: LOX IMVI melanoma
MOLT-4 leukemia = tested on: MOLT-4 leukemia
OVCAR-3 ovarian = tested on: OVCAR-3 ovarian
MALME-3M melanoma = tested on: MALME-3M melanoma
KM12 colon = tested on: KM12 colon
EKVX NSCLC = tested on: EKVX NSCLC
T-47D breast = tested on: T-47D breast
UACC-62 melanoma = tested on: UACC-62 melanoma
SW-620 colon = tested on: SW-620 colon
HCC-2998 colon = tested on: HCC-2998 colon
HS 578T breast = tested on: HS 578T breast
PC-3 prostate = tested on: PC-3 prostate
TK-10 renal = tested on: TK-10 renal
UACC-257 melanoma = tested on: UACC-257 melanoma
BT-549 breast = tested on: BT-549 breast
DU-145 prostate = tested on: DU-145 prostate
SR leukemia = tested on: SR leukemia
MDA-N = tested on: MDA-N
CAKI-1 renal = tested on: CAKI-1 renal
M14 melanoma = tested on: M14 melanoma
SF-539 CNS = tested on: SF-539 CNS
SF-268 CNS = tested on: SF-268 CNS
IGROV1 ovarian = tested on: IGROV1 ovarian
HCT-116 colon = tested on: HCT-116 colon
SK-MEL-5 melanoma = tested on: SK-MEL-5 melanoma
A549 NSCLC = tested on: A549 NSCLC
SN12C renal = tested on: SN12C renal
RPMI-8226 leukemia = tested on: RPMI-8226 leukemia
SK-OV-3 ovarian = tested on: SK-OV-3 ovarian
COLO 205 colon = tested on: COLO 205 colon
MDA-MB-435 = tested on: MDA-MB-435

N#Cc1c(-c2ccccc2)c(C#N)c(=S)n(C2OC(CO)C(O)C(O)C2O)c1N (centres undefined)
> 100 µM: TGI (HOP-92 NSCLC) | TGI (CCRF-CEM leukemia) | TGI (UO-31 renal) | TGI (OVCAR-5 ovarian) | TGI (K-562 leukemia) | TGI (MDA-MB-231 breast) | TGI (SF-295 CNS) | TGI (RXF 393 renal) | TGI (NCI-H522 lung) | TGI (NCI-H23 lung) | TGI (A498 renal) | TGI (NCI-H226 lung) | TGI (NCI-H460 lung) | TGI (OVCAR-8 ovarian) | TGI (ACHN renal) | TGI (SK-MEL-2 melanoma) | TGI (HOP-62 NSCLC) | TGI (SNB-75 CNS) | TGI (786-0 renal) | TGI (SNB-19 CNS) | TGI (U251 CNS) | TGI (OVCAR-4 ovarian) | TGI (HT29 colon) | TGI (HL-60(TB) leukemia) | TGI (MCF7 breast) | TGI (SK-MEL-28 melanoma) | TGI (HCT-15 colon) | TGI (LOX IMVI melanoma) | TGI (MOLT-4 leukemia) | TGI (OVCAR-3 ovarian) | TGI (MALME-3M melanoma) | TGI (KM12 colon) | TGI (EKVX NSCLC) | TGI (T-47D breast) | TGI (UACC-62 melanoma) | TGI (SW-620 colon) | TGI (HCC-2998 colon) | TGI (HS 578T breast) | TGI (PC-3 prostate) | TGI (TK-10 renal) | TGI (UACC-257 melanoma) | TGI (BT-549 breast) | TGI (DU-145 prostate) | TGI (SR leukemia) | TGI (MDA-N) | TGI (CAKI-1 renal) | TGI (M14 melanoma) | TGI (SF-539 CNS) | TGI (SF-268 CNS) | TGI (IGROV1 ovarian) | TGI (HCT-116 colon) | TGI (SK-MEL-5 melanoma) | TGI (A549 NSCLC) | TGI (SN12C renal) | TGI (RPMI-8226 leukemia)
inactive: GI50 (HOP-92 NSCLC) 42 µM and 21 µM | GI50 (UO-31 renal) > 100 µM and 40.3 µM | GI50 (HOP-62 NSCLC) > 100 µM and 36 µM | GI50 (MCF7 breast) 91.1 µM and 41.6 µM | GI50 (MOLT-4 leukemia) 39.3 µM and > 100 µM | GI50 (EKVX NSCLC) 44.4 µM and > 100 µM | GI50 (TK-10 renal) 40.5 µM and > 100 µM | GI50 (IGROV1 ovarian) > 100 µM and 45.5 µM

Brc1ccc(N=NN2CCCC2)cc1
> 100 µM: TGI (HOP-92 NSCLC) | TGI (CCRF-CEM leukemia) | TGI (UO-31 renal) | TGI (OVCAR-5 ovarian) | TGI (K-562 leukemia) | TGI (MDA-MB-231 breast) | TGI (SF-295 CNS) | TGI (RXF 393 renal) | TGI (NCI-H522 lung) | TGI (SK-OV-3 ovarian) | TGI (NCI-H23 lung) | TGI (A498 renal) | TGI (NCI-H226 lung) | TGI (NCI-H460 lung) | TGI (ACHN renal) | TGI (SK-MEL-2 melanoma) | TGI (HOP-62 NSCLC) | TGI (786-0 renal) | TGI (SNB-19 CNS) | TGI (U251 CNS) | TGI (OVCAR-4 ovarian) | TGI (HT29 colon) | TGI (HL-60(TB) leukemia) | TGI (MCF7 breast) | TGI (SK-MEL-28 melanoma) | TGI (HCT-15 colon) | TGI (LOX IMVI melanoma) | TGI (MOLT-4 leukemia) | TGI (OVCAR-3 ovarian) | TGI (COLO 205 colon) | TGI (MALME-3M melanoma) | TGI (KM12 colon) | TGI (EKVX NSCLC) | TGI (UACC-62 melanoma) | TGI (SW-620 colon) | TGI (HCC-2998 colon) | TGI (HS 578T breast) | TGI (PC-3 prostate) | TGI (TK-10 renal) | TGI (UACC-257 melanoma) | TGI (MDA-MB-435) | TGI (BT-549 breast) | TGI (DU-145 prostate) | TGI (SR leukemia) | TGI (MDA-N) | TGI (CAKI-1 renal) | TGI (M14 melanoma) | TGI (SF-539 CNS) | TGI (SF-268 CNS) | TGI (IGROV1 ovarian) | TGI (HCT-116 colon) | TGI (SK-MEL-5 melanoma) | TGI (A549 NSCLC) | TGI (SN12C renal) | TGI (RPMI-8226 leukemia)
97.3 µM: TGI (T-47D breast)

— PubChem BioAssay (NCI)
